This note sets out measurements from article PMC11093748, “De novo identification of CD4^+ T cell epitopes” (Nature Methods, 2024).

The assay concerns BDC2.5 TCR. Briefly: I-Ag7 SABR-II library screen, enrichment score. The class given is cell-based, mouse. The following applies: I-Ag7 library. An excerpt: We then asked whether SABR-IIs could be used to present a library of epitopes for CD4^+ T cell antigen discovery. To that end, we constructed a SABR-II library to present epitopes derived from pancreatic islets in I-Ag7 by curating a list of 4,075 published epitopes from the Immune Epitope Database (iedb.org)[50] and a study by Wan et al.[51] (Supplementary Table 1). Of note, this defined library consisted of unmodified epitopes from endogenous proteins, synthetic mimotopes, deamidated epitopes and hybrid insulin peptides (HIPs) that arise from post-translational fusion and are not genetically encoded in vivo[52],[53]. The epitope library was inserted into the I-Ag7 SABR-II backbone through pooled oligonucleotide synthesis, amplification and ligation-free cloning (Extended Data Fig. 3a). The I-Ag7 SABR-II-library was then expressed in NFAT–GFP Jurkat cells. We confirmed that after sequencing, the library accounted for a mean of 708 reads per epitope (Extended Data Fig. 3b). As a proof of concept, we performed co-incubation assays with Jurkat cells expressing the BDC2.5 TCR and sorted the top 1–2% of GFP^+CD69^+ cells at a rate of ~20 min per replicate with three replicates per TCR. We extracted the genomic DNA from sorted cells, amplified the SABR portion of the integrated proviruses and subjected the amplicons to Illumina sequencing (Extended Data Fig. 3c,d). The 1–2% sort gate represents >50-fold enrichment of cognate epitopes with minimal loss of signal (Extended Data Fig. 3e–h). Sequence reads were aligned to the I-Ag7 SABR-II backbone and the corresponding epitopes were scored based on their read counts. For each TCR under investigation, an enrichment score (ES) was determined for all the epitopes in a library. In each experiment, three replicates of a sort with TCR-expressing Jurkat cells were performed and reads were counted post-sequencing. In addition, three replicates of the unsorted library were also sequenced. A linear regression model was built using the unsorted library counts and used to determine the expected abundance of each epitope in the library. The ES was calculated based on the difference between the measured and the expected abundance of each epitope on a per-TCR basis (Fig. 1e). Based on ES values, two quantitative thresholds were used to determine putative cognate epitopes of a given TCR. A high-confidence zone containing clear outliers with a high ES and a low-confidence zone containing weak outliers with a moderately high ES were determined (Fig. 1e). This two-tiered strategy was used to call putative hits from screens. All the top-scoring epitopes for the BDC2.5 TCR were known BDC2.5 ligands containing the WXRM(D/E) motif (Fig. 1f,g, enriched ligands in red), a well-characterized trait of the BDC2.5 TCR[43],[54]–[56]. Across several independent experiments there was limited variation in ES values for the same TCRs and several epitopes fell into high- or low-confidence zones consistently (Extended Data Fig. 4a). Using a different TCR that was isolated from NOD mice, 4-8Ins[57], which recognized the InsB9:23 epitope ([…]), we observed a similar pattern of ES for cognate epitopes (Extended Data Fig. 4b).
For SABR library screens, 3 × 10^6 NFAT–GFP Jurkat cells expressing the SABR library were labeled with CellTrace Violet (BioLegend) according to the manufacturer’s protocol before incubation with 3 × 10^6 Jurkat cells expressing the TCR of interest. These mixtures were incubated in a six-well plate for 16–20 h. Cells were stained with anti-CD69-APC-Cy7 where indicated (BioLegend) and the top 1–2% of GFP^+CD69^+ cells were sorted for genomic DNA extraction, indexing and sequencing (see below). Multiplexed assays were scaled on a per-TCR basis (for example 3 × 10^6 for each of three TCRs against 9 × 10^6 library cells). […]

The mark [1] stands for this setting: EXPT1 of 8 biological experiments.

Consider “AAVRPLWVRMEAA [top putative hit of BDC2.5 TCR in I-Ag7 library]”, for which the Enrichment score runs as follows: under setting [1], 0.000742; (EXPT2 of 8) 0.000415; (EXPT3 of 8) 0.000612; (EXPT4 of 8) 0.000371; (EXPT5 of 8) 0.0007; (EXPT6 of 8) 0.000851. Also, the Enrichment score came out at 0.000576 (EXPT7 of 8) and 0.000606 (EXPT8 of 8).
For the sequence “AVRPLWVRME [top putative hit of BDC2.5 TCR in I-Ag7 library]”, the Enrichment score runs as follows: under setting [1], 0.000751; (EXPT2 of 8) 0.000649; (EXPT3 of 8) 0.001092; (EXPT4 of 8) 0.001062; (EXPT5 of 8) 0.001109; (EXPT6 of 8) 0.000835. Further, the Enrichment score runs as follows: (EXPT7 of 8) 0.001173; (EXPT8 of 8) 0.001182.
With “AVRPLWVRMEA [top putative hit of BDC2.5 TCR in I-Ag7 library]”, the Enrichment score by setting is: under setting [1], 0.000756; (EXPT2 of 8) 0.000652; (EXPT3 of 8) 0.000955; (EXPT4 of 8) 0.000753; (EXPT5 of 8) 0.000651; (EXPT6 of 8) 0.00121. The Enrichment score runs as follows: (EXPT7 of 8) 0.001291; (EXPT8 of 8) 0.000826.
As to “EKAHIPIWARMDAKK [top putative hit of BDC2.5 TCR in I-Ag7 library]”, the Enrichment score was found to be 0.001977 under setting [1]; 0.00122 (EXPT2 of 8); 0.003326 (EXPT3 of 8); 0.002646 (EXPT4 of 8); 0.002482 (EXPT5 of 8); 0.002979 (EXPT6 of 8). Further, the Enrichment score by setting is: (EXPT7 of 8) 0.003083; (EXPT8 of 8) 0.003642.
Turning to “EKAHRPIWARMDAKK [top putative hit of BDC2.5 TCR in I-Ag7 library]”, the Enrichment score runs as follows: under setting [1], 0.001675; (EXPT2 of 8) 0.001085; (EXPT3 of 8) 0.002939; (EXPT4 of 8) 0.002157; (EXPT5 of 8) 0.001924; (EXPT6 of 8) 0.002825. Also, the Enrichment score by setting is: (EXPT7 of 8) 0.003201; (EXPT8 of 8) 0.003092.
Take “RTRPLWVRME [top putative hit of BDC2.5 TCR in I-Ag7 library]”: the Enrichment score runs as follows: under setting [1], 0.000766; (EXPT2 of 8) 0.000703; (EXPT3 of 8) 0.00077; (EXPT4 of 8) 0.000734; (EXPT5 of 8) 0.001024; (EXPT6 of 8) 0.001078. The sequence further showed an Enrichment score (EXPT7 of 8) of 0.001083 and an Enrichment score (EXPT8 of 8) of 0.001303.
For the sequence “RVRPLWVRME [top putative hit of BDC2.5 TCR in I-Ag7 library]”, the Enrichment score is, setting by setting: under setting [1], 0.001251; (EXPT2 of 8) 0.001157; (EXPT3 of 8) 0.001581; (EXPT4 of 8) 0.000795; (EXPT5 of 8) 0.001224; (EXPT6 of 8) 0.001618. The sequence further showed an Enrichment score (EXPT7 of 8) of 0.001744 and an Enrichment score (EXPT8 of 8) of 0.001586.
“SRLGAWVRME [top putative hit of BDC2.5 TCR in I-Ag7 library]” displayed an Enrichment score under setting [1] of 0.000522; an Enrichment score (EXPT2 of 8) of 0.000175; an Enrichment score (EXPT3 of 8) of 0.000684; an Enrichment score (EXPT4 of 8) of 0.000306; an Enrichment score (EXPT5 of 8) of 0.000243; an Enrichment score (EXPT6 of 8) of 0.000632. Moreover, the Enrichment score came out at 0.000765 (EXPT7 of 8) and 0.000784 (EXPT8 of 8).
On to “SRLGLWARME [top putative hit of BDC2.5 TCR in I-Ag7 library]”, for which the Enrichment score is 0.00089 under setting [1]; 0.000594 (EXPT2 of 8); 0.000983 (EXPT3 of 8); 0.000723 (EXPT4 of 8); 0.000811 (EXPT5 of 8); 0.001313 (EXPT6 of 8). Further, the Enrichment score is, setting by setting: (EXPT7 of 8) 0.001203; (EXPT8 of 8) 0.001063.
Consider “SRLGLWVRMA [top putative hit of BDC2.5 TCR in I-Ag7 library]”, for which the Enrichment score was found to be 0.000692 under setting [1]; 0.000345 (EXPT2 of 8); 0.000603 (EXPT3 of 8); 0.000358 (EXPT4 of 8); 0.000683 (EXPT5 of 8); 0.000858 (EXPT6 of 8). The Enrichment score worked out at 0.0006 (EXPT7 of 8) and 0.000465 (EXPT8 of 8).
With “SRLGLWVRME [top putative hit of BDC2.5 TCR in I-Ag7 library]”, the Enrichment score under setting [1] worked out at 0.000716; the Enrichment score (EXPT2 of 8) was found to be 0.000449; the Enrichment score (EXPT3 of 8) was 0.000874; the Enrichment score (EXPT4 of 8) turned out to be 0.000616; the Enrichment score (EXPT5 of 8) is given as 0.000562; the Enrichment score (EXPT6 of 8) was determined as 0.000596. In addition, the Enrichment score is, setting by setting: (EXPT7 of 8) 0.000875; (EXPT8 of 8) 0.000992.
